The text below walks through data of patent US9144557B2, “Hematopoietic growth factor mimetic small molecule compounds and their uses” (Ligand Pharmaceuticals Inc., priority 2009, dated 2015).

In this assay the test system is UT7/EPO Cell line. Briefly: Cell Proliferation Assay (UT7/EPO, ViaLight Plus). The assay is classed as cell-based, human. Conditions: proliferative effect; compounds at 10 uM; UT7/EPO cells starved of EPO overnight; 72 hours at 37° C.; ViaLight Plus kit. On the procedure:
The primary testing for the examplfied compounds was performed in UT7/EPO Cell line. UT7/EPO is human leukemia cell line, obtained from Dr. Norio Komatsu (Blood, Vol 82 (2), pp 456-464, 1993). These cells express endogenous EPO receptor and are dependant upon EPO for growth and proliferation. Briefly, the cells were starved of EPO overnight and plated in 96 or 384 well plates. The compounds were added to the cells at 10 uM concentration. The plates were then incubated at 37° C. for 72 hours. The proliferative effect of the compounds was measured by a commercially available kit from Lonza (ViaLight Plus).

For `CN(C)c1ccc(C(=O)Nc2ccc3[nH]c(-c4ccc(-c5nn[nH]n5)cc4)nc3c2)cc1` [Compound 202, N-(2-(4-(2H-tetrazol-5-yl)phenyl)-1H-benzo[d]imidazol-5-yl)-4-(dimethylamino)benzamide], the “Activity (%)” value worked out at 17%. For the molecule `CN(C)c1ccc(C(=O)Nc2ccc3[nH]c(-c4ccc(N(C)C)cc4)nc3c2)cc1` [Compound 206, 4-(dimethylamino)-N-(2-(4-(dimethylamino)phenyl)-1H-benzo[d]imidazol-5-yl)benzamide], the “Activity (%)” value was 18%. For the molecule `COc1ccc(-c2nc3cc(NC(=O)c4cccs4)ccc3[nH]2)cc1` [Compound 210, N-(2-(4-methoxyphenyl)-1H-benzo[d]imidazol-5-yl)thiophene-2-carboxamide], the “Activity (%)” value is listed as 17%.

Regarding `O=C(Nc1ccccc1)c1ccc(-c2nc3cc(NC(=O)c4ccc(N5CCCCC5)cc4)ccc3[nH]2)cc1` [Compound 215, N-phenyl-4-(5-(4-(piperidin-1-yl)benzamido)-1H-benzo[d]imidazol-2-yl)benzamide], the “Activity (%)” value is 16%. For `CN(C)c1ccc(C(=O)Nc2ccc3[nH]c(-c4ccc(-c5ccc(N(C)C)cc5)cc4)nc3c2)cc1` [Compound 220, 4-(dimethylamino)-N-(2-(4′-(dimethylamino)-[1,1′-biphenyl]-4-yl)-1H-benzo[d]imidazol-5-yl)benzamide], the “Activity (%)” value turned out to be 19%. Turning to `O=C(Nc1ccc2[nH]c(-c3ccc(N4CCCC4)cc3)nc2c1)c1ccc(N2CCCC2)cc1` [Compound 225, 4-(pyrrolidin-1-yl)-N-(2-(4-(pyrrolidin-1-yl)phenyl)-1H-benzo[d]imidazol-5-yl)benzamide], the “Activity (%)” value worked out at 20%. On to `NNC(=O)c1ccc(-c2nc3cc(NC(=O)c4ccc(N5CCCC5)cc4)ccc3[nH]2)cc1` [Compound 230, N-(2-(4-(hydrazinecarbonyl)phenyl)-1H-benzo[d]imidazol-5-yl)-4-(pyrrolidin-1-yl)benzamide], for which the “Activity (%)” value turned out to be 21%. For `CN(CCO)c1ccc(C(=O)Nc2ccc3[nH]c(-c4ccc(C(=O)NC5CC5)cc4)nc3c2)cc1` [Compound 235, N-cyclopropyl-4-(5-(4-((2-hydroxyethyl)(methyl)amino)benzamido)-1H-benzo[d]imidazol-2-yl)benzamide], the “Activity (%)” value turned out to be 15%. In the case of `O=C(Nc1ccc2[nH]c(-c3ccc(C(=O)NC4CC4)cc3)nc2c1)c1ccc(N2CCC(O)C2)cc1` (stereo not drawn) [Compound 240, N-cyclopropyl-4-(5-(4-(3-hydroxypyrrolidin-1-yl)benzamido)-1H-benzo[d]imidazol-2-yl)benzamide], the “Activity (%)” value was determined as 15%. For `O=C(Nc1ccc(N2CCNCC2)cc1)c1ccc(-c2nc3cc(NC(=O)c4ccc(N5CCNCC5)cc4)ccc3[nH]2)cc1` [Compound 251, 4-(piperazin-1-yl)-N-(2-(4-((4-(piperazin-1-yl)phenyl)carbamoyl)phenyl)-1H-benzo[d]imidazol-5-yl)benzamide], the “Activity (%)” value was determined as 14%. The result for `O=C(Nc1ccc2[nH]c(-c3ccc(N4CCOCC4)nc3)nc2c1)c1ccc(N2CCOCC2)cc1` [Compound 256, 4-morpholino-N-(2-(6-morpholinopyridin-3-yl)-1H-benzo[d]imidazol-5-yl)benzamide] reads 12%; that for `COc1ccc(/C=C/c2nc3cc(-c4ccc5nc(/C=C/c6ccc(OC)cc6)[nH]c5c4)ccc3[nH]2)cc1` [Compound 262, 2,2′-bis((E)-4-methoxystyryl)-1H,3′H-5,5′-bibenzo[d]imidazole], 20%. For `O=C(Nc1ccc2[nH]c(-c3cccc(-c4nc5cc(NC(=O)c6ccc(N7CCCC7)cc6)ccc5[nH]4)c3)nc2c1)c1ccc(N2CCCC2)cc1` [Compound 268, N,N′-(2,2′-(1,3-phenylene)bis(1H-benzo[d]imidazole-5,2-diyl))bis(4-(pyrrolidin-1-yl)benzamide)] the value was 15%; for `CN(C)c1ccc(-c2nc3cc(NC(=O)c4ccc(C(=O)NN)cc4)ccc3[nH]2)cc1` [Compound 273, N-(2-(4-(dimethylamino)phenyl)-1H-benzo[d]imidazol-5-yl)-4-(hydrazinecarbonyl)benzamide], 16%; for `COc1cccc(/C=N/NC(=O)c2ccc(C(=O)Nc3ccc4nc(-c5ccc(N(C)C)cc5)[nH]c4c3)cc2)c1` [Compound 278, (E)-N-(2-(4-(dimethylamino)phenyl)-1H-benzo[d]imidazol-6-yl)-4-(2-(3-methoxybenzylidene)hydrazinecarbonyl)benzamide], 23%. As to `CN(C)c1ccc(-c2nc3cc(C(=O)Nc4ccc(NC(=O)c5ccc6[nH]c(-c7ccc(N(C)C)cc7)nc6c5)cc4)ccc3[nH]2)cc1` [Compound 283, N,N′-(1,4-phenylene)bis(2-(4-(dimethylamino)phenyl)-1H-benzo[d]imidazole-5-carboxamide)], the “Activity (%)” value stood at 19%.

For the molecule `O=C(Nc1ccc2[nH]c(-c3ccc(N4CCOCC4)cc3)nc2c1)c1ccc2nc(-c3ccc(N(CCO)CCO)cc3)[nH]c2c1` [Compound 288, 2-(4-(bis(2-hydroxyethyl)amino)phenyl)-N-(2-(4-morpholinophenyl)-1H-benzo[d]imidazol-5-yl)-1H-benzo[d]imidazole-6-carboxamide], the “Activity (%)” value is reported as 17%. Take `N#Cc1ccc(-c2nc3ccc(C(=O)Nc4ccc5[nH]c(-c6ccc(OCCO)cc6)nc5c4)cc3[nH]2)cc1` [Compound 294, 2-(4-cyanophenyl)-N-(2-(4-(2-hydroxyethoxy)phenyl)-1H-benzo[d]imidazol-5-yl)-1H-benzo[d]imidazole-6-carboxamide]: the “Activity (%)” value was 11%. Take `O=C(Nc1ccc2[nH]c(-c3ccc(N4CCOCC4)cc3)nc2c1)c1ccc2nc(-c3ccc(OCCO)cc3)[nH]c2c1` [Compound 299, 2-(4-(2-hydroxyethoxy)phenyl)-N-(2-(4-morpholinophenyl)-1H-benzo[d]imidazol-5-yl)-1H-benzo[d]imidazole-6-carboxamide]: the “Activity (%)” value was determined as 15%.

Consider `CN(C)c1ccc(C(=O)Nc2ccc(C(O)c3ccc(NC(=O)c4ccc(N(C)C)cc4)cc3)cc2)cc1` [Compound 305, N,N′-((hydroxymethylene)bis(4,1-phenylene))bis(4-(dimethylamino)benzamide)], for which the “Activity (%)” value is reported as 18%. With `CN(C)c1ccc(C(=O)Nc2ccc(C(=NOC(=O)Cc3ccccc3)c3ccc(NC(=O)c4ccc(N(C)C)cc4)cc3)cc2)cc1` [Compound 310, N,N′-((((2-phenylacetoxy)imino)methylene)bis(4,1-phenylene))bis(4-(dimethylamino)benzamide)], the “Activity (%)” value amounted to 22%. Regarding `CON=C(c1ccc(NC(=O)c2ccc(N3CCC(O)C3)cc2)cc1)c1ccc(NC(=O)c2ccc(N3CCC(O)C3)cc2)cc1` (stereo not drawn) [Compound 315, N,N′-(((methoxyimino)methylene)bis(4,1-phenylene))bis(4-(3-hydroxypyrrolidin-1-yl)benzamide)], the “Activity (%)” value is recorded as 16%. For `O=C(Nc1ccc(C(=O)c2ccc(NC(=O)c3ccc(N4CCCCC4)cc3)cc2)cc1)c1ccc(N2CCCCC2)cc1` [Compound 322, N,N′-(carbonylbis(4,1-phenylene))bis(4-(piperidin-1-yl)benzamide)] the value was 20%; for `O=C(Nc1ccc(C(=O)c2ccc(NC(=O)c3ccc(N(CCO)CCO)cc3)cc2)cc1)c1ccc(N(CCO)CCO)cc1` [Compound 327, N,N′-(carbonylbis(4,1-phenylene))bis(4-(bis(2-hydroxyethyl)amino)benzamide)], 17%; for `CON=C(c1ccc(NC(=O)c2ccc(N(C)CCO)cc2)cc1)c1ccc(NC(=O)c2ccc(N(C)CCO)cc2)cc1` [Compound 332, N,N′-(((methoxyimino)methylene)bis(4,1-phenylene))bis(4-((2-hydroxyethyl)(methyl)amino)benzamide)], 18%. Take `CON=C(c1ccc(NC(=O)c2ccc(N3CCN(C(=O)C4CC4)CC3)cc2)cc1)c1ccc(NC(=O)c2ccc(N3CCN(C(=O)C4CC4)CC3)cc2)cc1` [Compound 338, N,N′-(((methoxyimino)methylene)bis(4,1-phenylene))bis(4-(4-(cyclopropanecarbonyl)piperazin-1-yl)benzamide)]: the “Activity (%)” value came to 19%. The result for `O=C(Nc1ccc(C(=O)c2ccc(NC(=O)c3ccc4[nH]ccc4c3)cc2)cc1)c1ccc2[nH]ccc2c1` [Compound 345, N,N′-(4,4′-Carbonylbis(4,1-phenylene))bis(1H-indole-5-carboxamide)] reads 19%; that for `CC(=O)Nc1ccc(C(=O)c2ccc(NC(=O)c3ccc4c(ccn4C)c3)cc2)cc1` [Compound 349], 11%; that for `CN(C)c1ccc(C(=O)Nc2ccc(C(=O)c3ccc(NC(=O)c4ccc(F)cc4)cc3)cc2)cc1` [Compound 354, 4-(Dimethylamino)-N-(4-(4-(4-fluorobenzamido)benzoyl)phenyl)benzamide], 20%.

Consider `O=C(Nc1ccc(C(=O)c2ccc(NC(=O)C3CC3)cc2)cc1)c1ccc(N2CCOCC2)cc1` [Compound 359], for which the “Activity (%)” value amounted to 19%.

`O=C(Nc1ccc(Nc2ccc(NC(=O)c3ccc(N4CCC(O)CC4)cc3)cc2)cc1)c1ccc(N2CCC(O)CC2)cc1` [Compound 364, N,N′-(4,4′-Azanediylbis(4,1-phenylene))bis(4-(4-hydroxypiperidino)benzamide)]: the “Activity (%)” value is reported as 16%. In the case of `CN(C)c1ccc(C(=O)Nc2ccc(-n3ccc4cc(NC(=O)c5ccc(N(C)C)cc5)ccc43)cc2)cc1` [Compound 370, N-(1-(4-(4-Dimethylaminobenzamido)phenyl)-1H-indol-5-yl)-4-dimethylaminobenzamide], the “Activity (%)” value is recorded as 18%. For `CN(C)c1ccc(C(=O)Nc2ccc3c(cnn3-c3ccc(NC(=O)c4ccccc4)cc3)c2)cc1` [Compound 375, N-(1-(4-Benzamidophenyl)-1H-indazol-5-yl)-4-dimethylaminobenzamide], the “Activity (%)” value is given as 11%.
